In patent EP3263567A1, “CARBOXAMIDE-SUBSTITUTED PYRAZOLES AND TRI(HETERO)ARYL-PYRAZOLES FOR USE IN METHODS OF TREATING AND / OR PREVENTING CARDIOVASCULAR DISEASES AND / OR COMORBIDITIES THEREOF” (AiCuris Anti-infective Cures GmbH, priority 2016, dated 2018):
Each block holds one molecule with its values, some of them ahead of it.

Key:
human HCN4 currents = target: T1, human HCN4 currents (Homo sapiens, UniProt Q9Y3Q4); test: Whole-cell patch-clamp, HCN4 steady state currents in transiently transfected CHO cells; type: cell-based; conditions: for IC50: CHO cells transiently expressing HCN4, steady state current at -120 mV, n=3, read-out: IC50 (inhibition of HCN4 currents); for inhibition of the HCN4 current (result in words): tested first at 10 µM
T1 construct: CHO cells transiently expressing the HCN4 channel; expressed in transfected cells; host or cells: CHO (ATCC CCL-61), transiently transfected
T1 sequence (Q9Y3Q4 1-1203): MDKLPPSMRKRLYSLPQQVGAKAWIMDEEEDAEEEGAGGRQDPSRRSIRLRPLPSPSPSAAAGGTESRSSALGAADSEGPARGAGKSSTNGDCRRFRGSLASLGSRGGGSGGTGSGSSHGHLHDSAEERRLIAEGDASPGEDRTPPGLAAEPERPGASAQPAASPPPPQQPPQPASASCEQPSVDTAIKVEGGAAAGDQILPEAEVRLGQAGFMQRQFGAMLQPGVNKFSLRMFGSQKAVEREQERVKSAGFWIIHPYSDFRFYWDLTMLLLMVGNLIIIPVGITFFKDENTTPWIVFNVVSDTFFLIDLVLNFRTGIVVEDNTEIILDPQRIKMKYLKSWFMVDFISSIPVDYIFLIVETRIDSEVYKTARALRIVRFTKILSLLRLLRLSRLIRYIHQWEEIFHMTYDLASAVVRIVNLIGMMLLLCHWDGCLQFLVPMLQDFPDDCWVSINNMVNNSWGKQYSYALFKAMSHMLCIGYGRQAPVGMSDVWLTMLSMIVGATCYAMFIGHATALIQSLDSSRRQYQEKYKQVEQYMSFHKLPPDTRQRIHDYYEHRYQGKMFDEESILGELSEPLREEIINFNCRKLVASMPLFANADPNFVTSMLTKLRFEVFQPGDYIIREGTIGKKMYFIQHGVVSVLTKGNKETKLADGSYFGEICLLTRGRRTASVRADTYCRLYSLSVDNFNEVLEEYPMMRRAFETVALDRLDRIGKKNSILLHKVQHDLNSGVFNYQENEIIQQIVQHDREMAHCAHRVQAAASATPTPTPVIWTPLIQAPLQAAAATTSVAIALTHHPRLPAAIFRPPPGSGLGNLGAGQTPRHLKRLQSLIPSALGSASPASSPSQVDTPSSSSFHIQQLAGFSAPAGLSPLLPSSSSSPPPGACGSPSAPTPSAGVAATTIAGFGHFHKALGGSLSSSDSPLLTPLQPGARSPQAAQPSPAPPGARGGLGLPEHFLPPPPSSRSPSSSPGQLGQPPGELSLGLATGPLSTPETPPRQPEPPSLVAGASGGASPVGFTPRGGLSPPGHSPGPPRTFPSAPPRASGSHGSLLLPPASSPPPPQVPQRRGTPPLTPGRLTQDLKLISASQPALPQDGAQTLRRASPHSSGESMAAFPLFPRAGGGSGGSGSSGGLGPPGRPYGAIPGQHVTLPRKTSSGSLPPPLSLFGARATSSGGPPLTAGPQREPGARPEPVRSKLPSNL
Source text: The following six compounds in accordance with the invention: • Compound A: [drawing 81] i.e. 4-[5-[3-Chloro-5-(trifluoromethoxy) phenyl]-1-(pyridin-3-yl)-1H-pyrazol-3-yl]-5,6-dihydro-7H-pyrrolo[3,4-d]pyrimidin-7-one, • Compound B: [drawing 82] i.e. 4-[5-[3-Chloro-5-(trifluoromethoxy) phenyl]-1-(pyridin-3-yl)-1H-pyrazol-3-yl]-2,3-dihydro-1H-pyrrolo[3,4-c] pyridin-1-one, • Compound C: [drawing 83] i.e. 4-[5-[3-Chloro-5-(trifluoromethoxy) phenyl]-1-(pyridin-3-yl)-1H-pyrazol-3-yl]-5,6-dihydro-2-methyl-7H-pyrrolo[3, 4-d] pyrimidin-7-one, • Compound D: [drawing 84] i.e. 3-Amino-4-[5-[3-chloro-5-(trifluoromethoxy) phenyl]-1-(pyridin-3-yl)-1H-pyrazol-3-yl-carbonyl]-1,5-dihydro-2H-pyrrol-2-one, • Compound E: [drawing 85] i.e. 1-[[5-[3-Chloro-5-(trifluoromethoxy) phenyl]-1-(pyridin-3-yl)-1H-pyrazol-3-yl]carbonyl]-imidazolidin-4-one, • Compound F: [drawing 86] i.e. 4-[5-[3-Chloro-5-(trifluoromethoxy) phenyl]-1-(3-cyano-4-fluoro-phenyl)-1H-pyrazol-3-yl]-5,6-dihydro-7H-pyrrolo[3,4-d]pyrimidin-7-one, were tested on their effects on human HCN4 currents recorded from transiently transfected CHO cells, in direct comparison to the reference compounds described below: • Ivabradine: [drawing 87] i.e. ((S)-3-{3-[([3,4-Dimethoxy-bicyclo [4.2.0]octa-1,3,5-trien-7-yl]methyl)methylamino]propyl}-1,3,4,5-tetrahydro-7,8-dimethoxy-2H-3-benzazepin-2-on), • Compound X: [drawing 88] i.e. 1-[[1-(3-Chloro-4-fluorophenyl)-5-(3-chloro-5-fluorophenyl)-1 H-pyrazol-3-yl]carbonyl]-imidazolidin-4-one, • Compound Y: [drawing 89] i.e. N-(2-Amino-2-oxoethyl)-1-(3-chloro-4-fluorophenyl)-5-(3-chloro-5-fluorophenyl)-1H-pyrazole-3-carboxamide.
The pyrazole compounds X and Y as depicted above, and having structural similarities to the compounds of general formula (I) of the invention, were also tested to investigate whether the pure If current inhibitory effect of the compounds of the invention also extend to structurally closely related compounds.
Dependent on their solubility in the assay buffer, the compounds were tested first at one concentration of 10 µM (compound A, compound Y, compound X, compound B, compound E, compound F and ivabradine) or 1 µM for (compound C and D). If the current blocking of HCN4 at this concentration was higher than 50% the compounds were tested again at five concentrations of a half-logarithmic dilution series starting with either 10 µM or 1 µM as mentioned above (meaning 0.1 µM, 0.3 µM, 1 µM, 3 µM, and 10 µM or 0.01 µM, 0.03 µM 0.1 µM, 0.3 µM and 1 µM).
Test system: CHO cells transiently expressing the HCN4 channel; NCBI Reference Sequence: NP005468.1 (HCN4 channel); Source CHO: ATCC, CCL-61 LGC Standards GmbH, Wesel, Germany were used.
In 35 mm culture dishes CHO cells were seeded at a density allowing single cells to be recorded on the dish holder of the microscope and continuously perfused (at approximately 1 mL/min) with the bath solution described above. All solutions applied to cells including the pipette solution were maintained at room temperature (19 °C - 30 °C). After formation of a Gigaohm seal between the patch electrodes and individual cells (pipette resistance range: 2.0 MΩ - 7.0 MΩ; seal resistance range: > 1 GΩ) the cell membrane across the pipette tip was ruptured to assure electrical access to the cell interior (whole-cell patch-configuration). As soon as a stable seal was established, steady state currents were measured upon the hyperpolarization to -120 mV (2000 ms) from a holding potential of -40 mV. This voltage protocol (as shown in the scheme below) did run 5 times for control conditions and at least ten times for each test concentration. Pulse intervals were 20 s (0.05 Hz). If current amplitude was judged to be too low for measurement, another cell was recorded.
Once control recordings have been accomplished, cells were continuously perfused with bath solution containing the tested compounds as detailed above, 0.1 % DMSO or 100 µM ZD7288. […]

HCN4 = target: T2, HCN4 (Homo sapiens, UniProt Q9Y3Q4); conditions: literature value, Stieber et al. (2006) Mol Pharmacol 69, 1328-1337; read-out: IC50 mean (block of HCN4 channels); cited from earlier work
T2 sequence (Q9Y3Q4 1-1203): T1 sequence (Q9Y3Q4 1-1203)

[1] = Pharmacokinetics after single oral administration of formulations to dogs; conditions: 30 mg/kg single oral dose
Procedure: (§1) A single oral dose of 30 or 100 mg/kg was applied to dogs. Pharmacokinetic parameters were assessed and compared.
Male and female Beagle dogs.
(§2) Plasma concentrations were obtained by LC-MS/MS measurements.

in vivo = conditions: dog, po, 30 mg/kg
Procedure: as §1
Male and female Beagle dogs.
as §2

SMILES: COc1cc2c(cc1OC)CC(=O)N(CCCN(C)C[C@H]1Cc3cc(OC)c(OC)cc31)CC2 [Ivabradine, (S)-3-{3-[([3,4-Dimethoxy-bicyclo [4.2.0]octa-1,3,5-trien-7-yl]methyl)methylamino]propyl}-1,3,4,5-tetrahydro-7,8-dimethoxy-2H-3-benzazepin-2-on, reference compound]
- IC50 (human HCN4 currents): 4460 nM
- IC50 (HCN4): ~2150 nM

SMILES: N#Cc1cc(-n2nc(-c3ncnc4c3CNC4=O)cc2-c2cc(Cl)cc(OC(F)(F)F)c2)ccc1F [Compound F, 4-[5-[3-Chloro-5-(trifluoromethoxy)phenyl]-1-(3-cyano-4-fluoro-phenyl)-1H-pyrazol-3-yl]-5,6-dihydro-7H-pyrrolo[3,4-d]pyrimidin-7-one]
- IC50 (human HCN4 currents): 30 to 580 nM

SMILES: NC(=O)CNC(=O)c1cc(-c2cc(F)cc(Cl)c2)n(-c2ccc(F)c(Cl)c2)n1 [Compound Y, N-(2-Amino-2-oxoethyl)-1-(3-chloro-4-fluorophenyl)-5-(3-chloro-5-fluorophenyl)-1H-pyrazole-3-carboxamide, reference compound]
- inhibition of the HCN4 current (result in words) (human HCN4 currents): not identified as inhibitors of the HCN4 current

SMILES: O=C1NCc2c1ncnc2-c1cc(-c2cc(Cl)cc(OC(F)(F)F)c2)n(-c2cccnc2)n1 [ethane sulfonate]
- vomiting [1]: two to three out of four animals
- AUC(0-inf) (in vivo): 218 µg·h/mL

SMILES: CCN(c1ccccc1)c1cc(NC)[n+](C)c(C)n1 [ZD7288, reference compound]
- relative steady state current (HCN4) (human HCN4 currents; 100 µM, mean ± SEM of n=3 cells): 12.89 ± 1.19%

SMILES: O=C1CN(C(=O)c2cc(-c3cc(Cl)cc(OC(F)(F)F)c3)n(-c3cccnc3)n2)CN1 [Compound E, 1-[[5-[3-Chloro-5-(trifluoromethoxy)phenyl]-1-(pyridin-3-yl)-1H-pyrazol-3-yl]carbonyl]-imidazolidin-4-one]
- IC50 (human HCN4 currents): 30 to 580 nM

SMILES: O=C1CN(C(=O)c2cc(-c3cc(F)cc(Cl)c3)n(-c3ccc(F)c(Cl)c3)n2)CN1 [Compound X, 1-[[1-(3-Chloro-4-fluorophenyl)-5-(3-chloro-5-fluorophenyl)-1 H-pyrazol-3-yl]carbonyl]-imidazolidin-4-one, reference compound]
- inhibition of the HCN4 current (result in words) (human HCN4 currents): not identified as inhibitors of the HCN4 current

Now from value to molecule:

- block of HCN4 currents at a single concentration (human HCN4 currents; 0.1 µM): almost completely
- IC50 (human HCN4 currents): 30 to 580 nM
SMILES: O=C1NCc2c1ccnc2-c1cc(-c2cc(Cl)cc(OC(F)(F)F)c2)n(-c2cccnc2)n1 [Compound B, 4-[5-[3-Chloro-5-(trifluoromethoxy)phenyl]-1-(pyridin-3-yl)-1H-pyrazol-3-yl]-2,3-dihydro-1H-pyrrolo[3,4-c] pyridin-1-one]

- IC50 (human HCN4 currents): 30 to 580 nM
SMILES: NC1=C(C(=O)c2cc(-c3cc(Cl)cc(OC(F)(F)F)c3)n(-c3cccnc3)n2)CNC1=O [Compound D, 3-Amino-4-[5-[3-chloro-5-(trifluoromethoxy)phenyl]-1-(pyridin-3-yl)-1H-pyrazol-3-yl-carbonyl]-1,5-dihydro-2H-pyrrol-2-one]

- IC50 (human HCN4 currents): 30 to 580 nM
SMILES: Cc1nc2c(c(-c3cc(-c4cc(Cl)cc(OC(F)(F)F)c4)n(-c4cccnc4)n3)n1)CNC2=O [Compound C, 4-[5-[3-Chloro-5-(trifluoromethoxy)phenyl]-1-(pyridin-3-yl)-1H-pyrazol-3-yl]-5,6-dihydro-2-methyl-7H-pyrrolo[3,4-d] pyrimidin-7-one]
